Test results taken from US7632830B2, “Lactam compounds and pharmaceutical use thereof” (Ajinomoto Co., Inc., priority 2000, dated 2009).

Test system: adipose cells of rats
Test: Evaluation of the sugar-transporting activity (2-[14C(U)]-deoxy-D-glucose incorporation)
Format: cell-based
Conditions: 100 μg/ml of each compound; evaluated on the basis of the reinforcing effect of insulin (100 nM); rat adipose cells
Protocol: After the decapitation and venesection of 6 male Wistar rats (body weight: 150 to 200 g), an incision was made in the abdomen of each rat to extract 6 g in total of epididymal adipose tissues. The tissues were finely cut into 2 mm×2 mm pieces in 6 ml of KRH (Krebs-Ringer Hepes, composition: 130 mM of sodium chloride, 4.7 mM of potassium chloride, 1.2 mM of potassium dihydrogenphosphate, 1.2 mM of magnesium sulfate, 1 mM of calcium chloride and 25 mM of Hepes, pH=7.6) containing 5% of BSA (bovine serum albumin). 24 mg of collagenase (type I) was added thereto and the digestion treatment was conducted for about 40 minutes to obtain about 6 ml of isolated adipose cells. The collagenase was removed by the buffer exchange. 2% BSA/KRH solution was added to the residue for the re-suspension to obtain 45 ml of an adipose cell suspension.
The sugar-transporting activity of the compounds of the present invention was evaluated with reference to a method described in a literature [Annual Review of Biochemistry, Vol. 55, p. 1059 (1986)]. In the test, 200 μl of the adipose cell suspension was poured in each polystyrene test tube, 100 μl of the solution of the test substance (by dilution of 10 mg/ml substance dimethyl sulfoxide solution with KRH) was added thereto, and the obtained mixture was shaken and then cultured at 37° C. for 30 minutes.
The sugar-transporting activity was evaluated by measuring the quantity of 2-[^14C(U)]-deoxy-D-glucose incorporated per a unit time. Namely, 2-[^14C(U)]-deoxy-D-glucose was added to the adipose cell suspension after the pre-culture (the final concentration: 0.5 μCi/sample). 5 minutes after, cytochalasin B (final concentration: 10 μM) was added to the mixture to terminate the sugar transportation. After forming a dinonyl phthalate layer, the obtained mixture was centrifuged to separate the adipose cells from the buffer. The quantity of 2-[^14C(U)]-deoxy-D-glucose contained in the adipose cell layer was determined with a liquid scintillation counter to determine the quantity of the incorporated sugar. In this evaluation system, when insulin (100 nM) having the effect of increasing the sugar transportation was used, the effect was about 7 times as high as that obtained in the insulin-free control group.
The results of the evaluation of the sugar-transporting activity obtained by using 100 μg/ml of each compound of the present invention are shown in Table 6. The sugar transporting activity in Table 6 was evaluated on the basis of the reinforcing effect of insulin (100 nM). […] The symbols in Table 6 are as follows: • No: Example No., and • A: sugar transporting activity.
The results of the evaluation of the sugar-transporting activity obtained by using each compound of the present invention are shown in Table 7. The sugar transporting activity in Table 7 was determined in terms of the concentration (EC50: μg/ml) of a test compound, having a reinforcing effect corresponding to 50% on the basis of the reinforcing effect of insulin having a reinforcing effect of 100%.

Structure (SMILES) | activation at 100 µg/mL [%]
O=C1NCC2=C1[C@@H](c1ccc(Cl)cc1)N[C@@H]1CCCC[C@H]1N2 [Example 41] | ≥ 70
CC(=O)N1c2ccccc2NC2=C(C(=O)NC2)C1c1ccc(Br)cc1 (centres unmarked) [Example 43] | 40 to 70
CN1C2=C(C(=O)NC2)C(c2ccc(Br)cc2)Nc2ccccc21 (centres unmarked) [Example 44] | 20 to 40

Same assay, conditions: concentration having a reinforcing effect corresponding to 50% of the reinforcing effect of insulin (100%); rat adipose cells

Structure (SMILES) | A: sugar transporting activity (EC50) [mg/L]
COc1ccccc1[C@@H]1C2=C(CNC2=O)N[C@@H]2CCCC[C@H]2N1C(C)=O [Example 45] | 1.3
CCC(=O)N1[C@@H]2CCCC[C@H]2NC2=C(C(=O)NC2)[C@H]1c1ccccc1OC [Example 46] | 0.77
CCCC(=O)N1[C@@H]2CCCC[C@H]2NC2=C(C(=O)NC2)[C@H]1c1ccccc1OC [Example 47] | 4.6
COc1ccccc1[C@@H]1C2=C(CNC2=O)N[C@@H]2CCCC[C@H]2N1C(=O)C(F)(F)F [Example 48] | 4.5
COc1ccccc1[C@@H]1C2=C(CNC2=O)N[C@@H]2CCCC[C@H]2N1C(=O)CC(F)(F)F [Example 49] | 0.47
COc1ccccc1[C@@H]1C2=C(CNC2=O)N[C@@H]2CCCC[C@H]2N1C(=O)C(F)(F)C(F)(F)F [Example 50] | 9.5
COc1ccccc1[C@@H]1C2=C(CNC2=O)N[C@@H]2CCCC[C@H]2N1C(=O)CO [Example 51] | 2
COc1ccccc1[C@@H]1C2=C(CNC2=O)N[C@@H]2CCCC[C@H]2N1C(=O)COC(C)=O [Example 52] | 5.9
COCC(=O)N1[C@@H]2CCCC[C@H]2NC2=C(C(=O)NC2)[C@H]1c1ccccc1OC [Example 53] | 2
CCOCC(=O)N1[C@@H]2CCCC[C@H]2NC2=C(C(=O)NC2)[C@H]1c1ccccc1OC [Example 54] | 2.2
COc1ccccc1[C@@H]1C2=C(CNC2=O)N[C@@H]2CCCC[C@H]2N1C(=O)COc1ccccc1 [Example 55] | 4.6
COc1ccccc1[C@@H]1C2=C(CNC2=O)N[C@@H]2CCCC[C@H]2N1C(=O)Cc1ccccc1 [Example 56] | 5
CC=CC(=O)N1C(c2ccccc2OC)C2=C(CNC2=O)NC2CCCCC21 (centres unmarked) [Example 59] | 1.1
COC(=O)CCC(=O)N1[C@@H]2CCCC[C@H]2NC2=C(C(=O)NC2)[C@H]1c1ccccc1OC [Example 60] | 4.8
COc1ccccc1[C@@H]1C2=C(CNC2=O)N[C@@H]2CCCC[C@H]2N1C(=O)CCCO [Example 62] | 4.8
COc1ccccc1[C@@H]1C2=C(CNC2=O)N[C@@H]2CCCC[C@H]2N1C(=O)CCNC(=O)OCc1ccccc1 [Example 65] | 8
COc1ccccc1[C@@H]1C2=C(CNC2=O)N[C@@H]2CCCC[C@H]2N1C(=O)CCN [Example 66] | 8
COCCC(=O)N1[C@@H]2CCCC[C@H]2NC2=C(C(=O)NC2)[C@H]1c1ccccc1OC [Example 67] | 3.4
COc1ccccc1[C@@H]1C2=C(CNC2=O)N[C@@H]2CCCC[C@H]2N1C(=O)CCc1ccccc1 [Example 68] | 0.9
COc1ccccc1CCC(=O)N1[C@@H]2CCCC[C@H]2NC2=C(C(=O)NC2)[C@H]1c1ccccc1OC [Example 69] | 4
COc1ccccc1[C@@H]1C2=C(CNC2=O)N[C@@H]2CCCC[C@H]2N1C(=O)CCc1ccc(F)c(F)c1 [Example 70] | 4.2
COc1ccccc1[C@@H]1C2=C(CNC2=O)N[C@@H]2CCCC[C@H]2N1C(=O)CCSC [Example 71] | 2.6
COc1ccccc1[C@@H]1C2=C(CNC2=O)N[C@@H]2CCCC[C@H]2N1C(=O)CC(C)=O [Example 72] | 5.5
COc1ccccc1[C@@H]1C2=C(CNC2=O)N[C@@H]2CCCC[C@H]2N1C(=O)c1ccccn1 [Example 76] | 10
COc1ccccc1[C@@H]1C2=C(CNC2=O)N[C@@H]2CCCC[C@H]2N1C(=O)c1ccncc1 [Example 78] | 18

Structure (SMILES) | A: sugar transporting activity (EC50) [mg/L]
COc1ccccc1[C@@H]1C2=C(CNC2=O)N[C@@H]2CCCC[C@H]2N1C(=O)c1cnccn1 [Example 79] | 8.6
COC(=O)N1[C@@H]2CCCC[C@H]2NC2=C(C(=O)NC2)[C@H]1c1ccccc1OC [Example 80] | 6
CCOC(=O)N1[C@@H]2CCCC[C@H]2NC2=C(C(=O)NC2)[C@H]1c1ccccc1OC [Example 81] | 4.2
COc1ccccc1[C@@H]1C2=C(CNC2=O)N[C@@H]2CCCC[C@H]2N1C(=O)OCc1ccccc1 [Example 82] | 6
COc1ccccc1[C@@H]1C2=C(CNC2=O)N[C@@H]2CCCC[C@H]2N1C(=O)Oc1ccccc1 [Example 83] | 11
CCNC(=O)N1[C@@H]2CCCC[C@H]2NC2=C(C(=O)NC2)[C@H]1c1ccccc1OC [Example 84] | 3.6
CCCNC(=O)N1[C@@H]2CCCC[C@H]2NC2=C(C(=O)NC2)[C@H]1c1ccccc1OC [Example 85] | 7
CCOc1ccccc1[C@@H]1C2=C(CNC2=O)N[C@@H]2CCCC[C@H]2N1C(C)=O [Example 87] | 15
CCOc1ccccc1[C@@H]1C2=C(CNC2=O)N[C@@H]2CCCC[C@H]2N1C(=O)CC [Example 88] | 1.9
CCCC(=O)N1[C@@H]2CCCC[C@H]2NC2=C(C(=O)NC2)[C@H]1c1ccccc1OCC [Example 89] | 1.3
CCOc1ccccc1[C@@H]1C2=C(CNC2=O)N[C@@H]2CCCC[C@H]2N1C(=O)C(F)(F)F [Example 90] | 5
CCOc1ccccc1[C@@H]1C2=C(CNC2=O)N[C@@H]2CCCC[C@H]2N1C(=O)COC(C)=O [Example 91] | 13
CCOc1ccccc1[C@@H]1C2=C(CNC2=O)N[C@@H]2CCCC[C@H]2N1C(=O)CO [Example 92] | 3.8
CCOc1ccccc1[C@@H]1C2=C(CNC2=O)N[C@@H]2CCCC[C@H]2N1C(=O)COC [Example 93] | 3.6
CCOCC(=O)N1[C@@H]2CCCC[C@H]2NC2=C(C(=O)NC2)[C@H]1c1ccccc1OCC [Example 94] | 4
CCOc1ccccc1[C@@H]1C2=C(CNC2=O)N[C@@H]2CCCC[C@H]2N1C(=O)OC [Example 95] | 1.5
CCOC(=O)N1[C@@H]2CCCC[C@H]2NC2=C(C(=O)NC2)[C@H]1c1ccccc1OCC [Example 96] | 7
CCNC(=O)N1[C@@H]2CCCC[C@H]2NC2=C(C(=O)NC2)[C@H]1c1ccccc1OCC [Example 97] | 12
CC(=O)N1[C@@H]2CCCC[C@H]2NC2=C(C(=O)NC2)[C@H]1c1ccccc1OC(C)C [Example 98] | 14
CCC(=O)N1[C@@H]2CCCC[C@H]2NC2=C(C(=O)NC2)[C@H]1c1ccccc1OC(C)C [Example 99] | 2
CCOCC(=O)N1[C@@H]2CCCC[C@H]2NC2=C(C(=O)NC2)[C@H]1c1ccccc1OC(C)C [Example 100] | 2
COC(=O)N1[C@@H]2CCCC[C@H]2NC2=C(C(=O)NC2)[C@H]1c1ccccc1OC(C)C [Example 101] | 4.8
CCOCC(=O)N1[C@@H]2CCCC[C@H]2NC2=C(C(=O)NC2)[C@H]1c1ccccc1OCc1ccccc1 [Example 102] | 4
CC(=O)N1[C@@H]2CCCC[C@H]2NC2=C(C(=O)NC2)[C@H]1c1ccccc1OCc1ccccc1 [Example 103] | 3.6
CCOCC(=O)N1[C@@H]2CCCC[C@H]2NC2=C(C(=O)NC2)[C@H]1c1ccccc1O [Example 104] | 1
